Key:
Type in all cases: in vivo
Avena fatua (AVEFA) [1] = experiment: Pre-emergence herbicidal activity, glasshouse pot test; conditions: Avena fatua, 312 h; Rate 250 g/ha; pre-emergence spray; evaluated after 13 days; read-out: Pre-emergence activity AVEFA (100=total damage to plant; 0=no damage to plant)
Procedure, shortened: (§1)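 Spray solution: technical a.i. formulated in acetone/water (50:50) with 0.5% Tween 20, diluted in water. Applied to pots 1 d (pre) or 8 d (post) after sowing; glasshouse 24/16° C day/night, 14 h light, 65% humidity. Rated at 13 d, 0–100 damage.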

[2] = system: Alopecurus myosuroides (ALOMY); experiment: as above; conditions: Alopecurus myosuroides, 312 h; Rate 250 g/ha; pre-emergence spray; evaluated after 13 days; read-out: Pre-emergence activity ALOMY (100=total damage to plant; 0=no damage to plant)
Procedure, shortened: as §1

Lolium perenne (LOLPE) [3] = experiment: as above; conditions: Lolium perenne, 312 h; Rate 250 g/ha; pre-emergence spray; evaluated after 13 days; read-out: Pre-emergence activity LOLPE (100=total damage to plant; 0=no damage to plant)
Procedure, shortened: as §1

[4] = system: Echinochloa crus-galli (ECHCG); experiment: as above; conditions: Echinochloa crus-galli, 312 h; Rate 250 g/ha; pre-emergence spray; evaluated after 13 days; read-out: Pre-emergence activity ECHCG (100=total damage to plant; 0=no damage to plant)
Procedure, shortened: as §1

Avena fatua (AVEFA) [5] = experiment: Post-emergence herbicidal activity, glasshouse pot test; conditions: Avena fatua, 312 h, rate 250 g/ha, evaluated after 13 days, glasshouse, read-out: Post-emergence activity AVEFA (100=total damage to plant; 0=no damage to plant)
Procedure, shortened: as §1

[6] = system: Alopecurus myosuroides (ALOMY); experiment: as above; conditions: Alopecurus myosuroides, 312 h, rate 250 g/ha, evaluated after 13 days, glasshouse, read-out: Post-emergence activity ALOMY (100=total damage to plant; 0=no damage to plant)
Procedure, shortened: as §1

Lolium perenne (LOLPE) [7] = experiment: as above; conditions: Lolium perenne, 312 h, rate 250 g/ha, evaluated after 13 days, glasshouse, read-out: Post-emergence activity LOLPE (100=total damage to plant; 0=no damage to plant)
Procedure, shortened: as §1

[8] = system: Echinochloa crus-galli (ECHCG); experiment: as above; conditions: Echinochloa crus-galli, 312 h, rate 250 g/ha, evaluated after 13 days, glasshouse, read-out: Post-emergence activity ECHCG (100=total damage to plant; 0=no damage to plant)
Procedure, shortened: as §1

Structure (SMILES) | pest or weed control at 250 g/ha (Avena fatua (AVEFA) [1]) | pest or weed control at 250 g/ha [2] | pest or weed control at 250 g/ha (Lolium perenne (LOLPE) [3]) | pest or weed control at 250 g/ha [4] | pest or weed control at 250 g/ha (Avena fatua (AVEFA) [5]) | pest or weed control at 250 g/ha [6] | pest or weed control at 250 g/ha (Lolium perenne (LOLPE) [7]) | pest or weed control at 250 g/ha [8]
CCc1ccc(Oc2ccc3cc(Cl)ccc3n2)cc1C1=C(O)C(C)(C)OC(C)(C)C1=O [Example A-159] | 40% | 30% | 100% | 90% | 80% | 80% | 100% | 100%
CCc1ccc(Oc2cnc3ccccc3n2)cc1C1=C(O)C(C)(C)OC(C)(C)C1=O [Example A-161] | 50% | 70% | 90% | 100% | 70% | 100% | 90% | 100%
CCc1ccc(Oc2ncc(Cl)cc2[N+](=O)[O-])cc1C1=C(O)C(C)(C)OC(C)(C)C1=O [Example A-162] | 10% | 30% | 50% | 60% | 50% | 80% | 70% | 90%
CCc1ccc(Oc2ccc(I)cn2)cc1C1=C(O)C(C)(C)OC(C)(C)C1=O [Example A-163] | 70% | 70% | 100% | 100% | 90% | 90% | 100% | 100%
CCc1ccc(Oc2c(F)cc(C#N)cc2F)cc1C1=C(O)C(C)(C)OC(C)(C)C1=O [Example A-166] | 20% | 20% | 10% | 40% | 20% | 30% | 20% | 60%
CCc1ccc(Oc2nc(F)c(F)cc2F)cc1C1=C(O)C(C)(C)OC(C)(C)C1=O [Example A-167] | 10% | 30% | 30% | 100% | 40% | 60% | 50% | 100%
CCc1ccc(Oc2nc3ccc(C)cc3s2)cc1C1=C(O)C(C)(C)OC(C)(C)C1=O [Example A-168] | 10% | 60% | 80% | 70% | 20% | 90% | 90% | 90%
CCc1ccc(Oc2cc(OC)c(Cl)nn2)cc1C1=C(O)C(C)(C)OC(C)(C)C1=O [Example A-169] | 0% | 20% | 10% | 30% | 30% | 20% | 20% | 30%
CCc1ccc(Oc2cnc3cc(F)ccc3n2)cc1C1=C(O)C(C)(C)OC(C)(C)C1=O [Example A-172] | 60% | 90% | 100% | 100% | 100% | 100% | 100% | 100%
CCc1ccc(Oc2nc3ccc(F)cc3nc2Cl)cc1C1=C(O)C(C)(C)OC(C)(C)C1=O [Example A-173] | 0% | 0% | 10% | 50% | 10% | 0% | 10% | 20%
CCc1ccc(Oc2nc3ccccc3nc2C(F)(F)F)cc1C1=C(O)C(C)(C)OC(C)(C)C1=O [Example A-174] | 40% | 50% | 70% | 100% | 100% | 90% | 90% | 100%
CCc1ccc(Oc2ccc(F)c(F)c2)cc1C1=C(O)C(C)(C)OC(C)(C)C1=O [Example A-177] | 0% | 0% | 30% | 60% | 20% | 0% | 40% | 70%
CCc1ccc(Oc2ccc(F)c(C(F)(F)F)c2)cc1C1=C(O)C(C)(C)OC(C)(C)C1=O [Example A-178] | 0% | 10% | 0% | 10% | 40% | 40% | 30% | 80%
CCc1ccc(Oc2ccc(Cl)cc2OC)cc1C1=C(O)C(C)(C)OC(C)(C)C1=O [Example A-181] | 0% | 0% | 0% | 0% | 0% | 0% | 20% | 30%
CCc1ccc(Oc2ccc(Cl)c(Cl)c2)cc1C1=C(O)C(C)(C)OC(C)(C)C1=O [Example A-182] | 30% | 30% | 80% | 90% | 60% | 90% | 60% | 100%
CCc1ccc(Oc2ccc(Cl)c(C(F)(F)F)c2)cc1C1=C(O)C(C)(C)OC(C)(C)C1=O [Example A-183] | 20% | 30% | 80% | 60% | 50% | 70% | 40% | 90%
CCc1ccc(Oc2ccc(Cl)c(C)c2)cc1C1=C(O)C(C)(C)OC(C)(C)C1=O [Example A-184] | 0% | 10% | 50% | 50% | 0% | 20% | 30% | 30%
CCc1ccc(Oc2cccc(C(F)(F)F)c2)cc1C1=C(O)C(C)(C)OC(C)(C)C1=O [Example A-185] | 0% | 0% | 0% | 30% | 20% | 20% | 30% | 70%

Reference: US8865623B2, “Herbicidally active cyclic diones and derivatives thereof, processes for their preparation, compositions, and method of controlling weeds” (Syngenta Limited, priority 2009, dated 2014)
